In US8119616B2, “Formulation of quinazoline based EGFR inhibitors containing a zinc binding moiety” (Curis, Inc., priority 2007, dated 2012):
Read-outs that look alike come from different tables or passages of the source.

Tests used:
human EGFR = target: T1, human EGFR (Homo sapiens, UniProt P00533); experiment: HTScan EGF Receptor Kinase assay; type: biochemical; conditions: FIG. 1
T1 construct: human EGFR (His672-Ala1210); purchased Cell Signaling Technologies; host or cells: baculovirus expression system
T1 sequence (P00533 672-1210): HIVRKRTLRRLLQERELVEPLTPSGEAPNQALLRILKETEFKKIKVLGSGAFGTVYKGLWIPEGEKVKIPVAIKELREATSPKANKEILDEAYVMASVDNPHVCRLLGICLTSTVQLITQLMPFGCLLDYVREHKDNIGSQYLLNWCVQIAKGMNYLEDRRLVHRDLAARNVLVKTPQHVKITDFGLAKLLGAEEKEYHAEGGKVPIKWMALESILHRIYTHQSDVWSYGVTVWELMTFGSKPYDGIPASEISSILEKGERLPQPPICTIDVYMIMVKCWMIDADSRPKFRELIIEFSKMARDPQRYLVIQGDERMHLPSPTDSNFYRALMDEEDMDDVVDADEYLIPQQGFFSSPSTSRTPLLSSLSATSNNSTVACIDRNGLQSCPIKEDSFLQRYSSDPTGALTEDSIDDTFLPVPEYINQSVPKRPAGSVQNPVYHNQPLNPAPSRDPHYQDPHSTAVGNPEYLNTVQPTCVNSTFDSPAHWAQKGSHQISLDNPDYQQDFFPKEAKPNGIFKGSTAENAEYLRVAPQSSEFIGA
Description: The ability of compounds to inhibit receptor kinase (EGFR) activity was assayed using HTScan™ EGF Receptor Kinase Assay Kits (Cell Signaling Technologies, Danvers, Mass.). […] The protein was purified by one-step affinity chromatography using glutathione-agarose.
Immediately transfer enzyme from −80° C. to ice. Allowed enzyme to thaw on ice. […] Returned immediately to ice. […] Incubated reaction plate at room temperature for 30 minutes. […] Added 100 μl/well primary antibody. Incubated at room temperature for 60 minutes. […] Added 100 μl/well diluted antibody. Incubated at room temperature for 30 minutes. […] Incubated at room temperature for 5 minutes.

A549 NSCLC = A549 NSCLC Xenograft model; type: in vivo, mice; conditions: compared with vehicle or control
Description: A representative protocol for the in vivo experiment is as followed:
1-10×10^6 human cancer cells were implanted subcutaneously to the athymic (nu/nu) mice. When the tumors reached about 100 mm^3 in volume, the mice were treated with the compound by tail vein infusion. Routinely 5 groups (8-12 mice per group) are needed for a typical efficacy study, including one negative control, one positive control, and three testing groups for 3 dose levels of the same compound. Usually a 7-7-5 (on-off-on) regimen was used for one typical study. The tumor size was measured with an electronic caliper and body weight measured with a scale twice weekly. The tumors were removed from euthanized mice at the end of the study. One half of each tumor was frozen in dry ice and stored at −80° C. for PK or Western blot analysis. The other half was fixed with formalin. The fixed tissues were processed, embedded in paraffin and sectioned for immunohistochemistry staining. Protocol for Radioisotope assay for HER2

EGFR = EGFR phosphorylation in MDA-MB-468 breast cancer cell line; type: cell-based; conditions: FIG. 2
Description: Allowed A431 cell growth in a T75 flask using standard tissue culture procedures until cells reach near confluency (˜1.5×10^7) cells; D-MEM, 10% FBS). Under sterile conditions dispensed 100 μl of the cell suspension per well in 96-well microplates (x cells plated per well). Incubated cells and monitor cell density until confluency is achieved with well-to-well consistency; approximately three days. Removed complete media from plate wells by aspiration or manual displacement. Replaced media with 50 μl of pre-warmed serum free media per well and incubated 4 to 16 hours. Made two fold serial dilutions of inhibitor using pre-warmed D-MEM so that the final concentration of inhibitor range from 10 μM to 90 pM. Removed media from A431 cell plate. Added 100 μl of serial diluted inhibitor into cells and incubate 1 to 2 hours. Removed inhibitor from plate wells by aspiration or manual displacement. Added either serum free media for resting cells (mock) or serum free media with 100 ng/ml EGF. Used 100 μl of resting/activation media per well. Allowed incubation at 37° C. for 7.5 minutes. Removed activation or stimulation media manually or by aspiration. Immediately fixed cells with 4% formaldehyde in 1×PBS. […] Determined the ratio of […] protein (700/800) using Odyssey software and plot the results in Graphpad Prism (V4.0a).

[1] = both, Sprague Dawley, rat, in vivo, iv, 8 days
Description: Single dosing MTD in rats • a. Sprague Dawley, male and female, 240-260 gram • b. Dosing at 0, 25, 50, 100, 200 mg/kg, iv infusion 5 min • c. 6 rats per group (3 male and 3 female)
(§1) Stock solution is diluted with 30% CAPTISOL before use.

[2] = male, CD-1, mouse, in vivo, iv, 9 day
Description: Single dosing MTD in mice • a. CD-1 mice, male, 24-26 gram • b. Dosing at 0, 50, 100, 200, 400 mg/kg, iv infusion 2 min • c. 8 mice per group
as §1

[3] = tested on: HCT-116 (colon) and SKBr3 (breast) cancer cells; experiment: Induction of apoptosis (Caspase 3&7 activity); type: cell-based; conditions: HCT-116 and SKBr3, 24 hours
[4] = both, Sprague Dawley, rat, in vivo, iv, 7 days
Description: 7-day multiple dosing MTD in rats • a. Sprague Dawley, male and female, 220-250 gram • b. Dose, 25, 50, 100, 200 mg/kg/d) iv infusion 5 min • c. 6 per group (3 male and 3 female) • d. Blood and organs will be collected 2 hr after last dosing on Day 7 for hematology Compound Preparation
as §1

[5] = tested on: various cancer cell lines; experiment: Anti-proliferative activity in various cancer cell lines (Table D, FIG. 3); type: cell-based; conditions: five major types of cancer (lung, breast, prostate, colon, and pancreas)
Description: Cell Proliferation Assay:
Cancer cell lines were plated at 5,000 to 10,000 per well in 96-well flatted bottomed plates with various concentration of compounds. The cells were incubated with compounds for 72 hours in the presence of 0.5% of fetal bovine serum. Growth inhibition was accessed by adenosine triphosphate (ATP) content assay using Perkin Elmer ATPlite kit. ATPlite is an ATP monitoring system based on firefly luciferase. Briefly, 25 μl of mammalian cell lysis solution was added to 50 μl of phenol red-free culture medium per well to lyse the cells and stabilize the ATP. 25 μl of substrate solution was then added to the well and subsequently the luminescence was measured.
Table D illustrates the potency of compounds of the invention.

For `C#Cc1cccc(Nc2ncnc3cc(OC)c(OCCCCCCC(=O)NO)cc23)c1` [Compound 12, 7-(4-(3-ethynylphenylamino)-7-methoxyquinazolin-6-yloxy)-N-hydroxyheptanamide], the “activity in EFGR enzyme assay compared with erlotinib and SAHA” value (human EGFR) was “more active than erlotinib and SAHA”, the “effect on tumor size / tumor growth” value (A549 NSCLC) was “attenuated tumor growth” and the “inhibition of EGFR phosphorylation compared with Erlotinib” value (EGFR) was “improvement in inhibition”. For the same molecule, the “dose that did not result in a significant change in body weight” value [1] was “up to 200 mg/kg”, the “dose that did not result in a significant change in body weight” value [2] was “up to 200 mg/kg” and the “cell apoptosis as measured by increased Caspase 3&7 activity” value [3] was 4-11 times. The “dose that did not result in a significant change in body weight or food consumption” value [4] was “up to 100 mg/kg” and the “response of cell lines compared with a combination of erlotinib and SAHA” value [5] was “responded better to compound 12 than a combination of erlotinib and SAHA”.
